Laboratory results from ChEMBL document CHEMBL2321785, “Synthesis and SAR study of new thiazole derivatives as vascular adhesion protein-1 (VAP-1) inhibitors for the treatment of diabetic macular edema” (Bioorg Med Chem, 2013).
pIC50: −log10 of the molar value. Calls of active or inactive are those of the source. No cut-off for these calls is given here.

Key:
[1] = target: T1, Amine oxidase [copper-containing] 3 (Homo sapiens, UniProt Q16853); experiment: Inhibition of human VAP1 expressed in CHO cells using [14C]-benzylamine as substrate incubated for 30 mins prior to substrate addition measured after 1 hr by scintillation spectrophotometric analysis; format: cell-based
T1 sequence (Q16853 whole entry): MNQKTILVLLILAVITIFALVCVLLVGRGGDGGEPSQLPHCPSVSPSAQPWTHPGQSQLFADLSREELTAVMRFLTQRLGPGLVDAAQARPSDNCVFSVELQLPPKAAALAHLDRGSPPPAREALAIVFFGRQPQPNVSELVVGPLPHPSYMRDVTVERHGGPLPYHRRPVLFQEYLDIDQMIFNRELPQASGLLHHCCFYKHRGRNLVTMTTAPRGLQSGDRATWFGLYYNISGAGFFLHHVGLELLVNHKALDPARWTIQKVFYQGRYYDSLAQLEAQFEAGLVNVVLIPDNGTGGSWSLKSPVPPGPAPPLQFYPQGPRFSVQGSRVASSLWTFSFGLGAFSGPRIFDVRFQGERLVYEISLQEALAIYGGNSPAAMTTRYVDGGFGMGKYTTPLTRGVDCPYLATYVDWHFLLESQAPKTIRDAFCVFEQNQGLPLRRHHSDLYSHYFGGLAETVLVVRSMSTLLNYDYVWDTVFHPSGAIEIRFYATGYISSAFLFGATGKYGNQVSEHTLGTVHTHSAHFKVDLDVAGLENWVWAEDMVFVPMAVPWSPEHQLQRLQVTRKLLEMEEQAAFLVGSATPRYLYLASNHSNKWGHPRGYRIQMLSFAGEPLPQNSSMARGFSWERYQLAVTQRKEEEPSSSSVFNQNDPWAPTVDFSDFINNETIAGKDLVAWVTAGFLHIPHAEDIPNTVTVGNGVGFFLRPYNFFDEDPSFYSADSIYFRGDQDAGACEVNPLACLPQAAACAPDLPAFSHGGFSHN

[2] = target: T2, Amine oxidase [flavin-containing] B (Homo sapiens, UniProt P27338); experiment: Inhibition of human MAOB expressed in CHO cells using benzylamine as substrate after 1 hr by fluorometric assay; format: cell-based
T2 sequence (P27338 whole entry): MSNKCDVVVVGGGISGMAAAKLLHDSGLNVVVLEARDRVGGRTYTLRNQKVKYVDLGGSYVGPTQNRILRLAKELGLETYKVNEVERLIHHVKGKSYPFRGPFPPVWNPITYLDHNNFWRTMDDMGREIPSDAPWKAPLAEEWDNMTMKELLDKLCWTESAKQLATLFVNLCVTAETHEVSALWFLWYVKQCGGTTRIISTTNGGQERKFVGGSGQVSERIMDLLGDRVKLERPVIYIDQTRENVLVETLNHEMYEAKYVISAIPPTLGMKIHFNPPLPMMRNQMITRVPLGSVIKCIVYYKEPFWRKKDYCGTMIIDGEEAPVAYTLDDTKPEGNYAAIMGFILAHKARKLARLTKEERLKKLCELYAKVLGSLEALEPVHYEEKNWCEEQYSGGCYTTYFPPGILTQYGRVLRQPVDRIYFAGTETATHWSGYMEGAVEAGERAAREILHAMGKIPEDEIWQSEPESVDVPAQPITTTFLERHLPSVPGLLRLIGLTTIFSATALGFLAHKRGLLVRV

Plasma [3] = experiment: Plasma concentration in sc dosed Wistar rat after 0.5 to 6 hrs by LC-MS analysis; format: ADME, organism-based; settings: in vivo
Rattus norvegicus [4] = experiment: Inhibition of VAP1 in streptozotocin-induced Wistar rat diabetic model using [14C]-benzylamine as substrate assessed as [14C]-benzylaldehyde formation in plasma at >/= 0.1 mg/kg, sc after 1 hr by liquid scintillation counting analysis; format: functional, organism-based; design: dose 0.1 mg/kg
Homo sapiens [5] = species on record: Homo sapiens; experiment: Selectivity ratio of IC50 for human MAOB to IC50 for human VAP1
Homo sapiens [6] = species on record: Homo sapiens; experiment: Selectivity ratio of IC50 for human DAO to IC50 for human VAP1
Rattus norvegicus [7] = experiment: Inhibition of VAP1-mediated ocular permeability in streptozotocin-induced Sprague-Dawley rat diabetic model assessed as fluorescein leakage in vitreous at 1 to 10 mg/kg, sc administered daily for 4 weeks post streptozotocin challenge measured 24 hrs post last dose by fluorescence assay; format: functional, organism-based
Plasma [8] = experiment: Plasma concentration in Wistar rat at 0.1 mg/kg, sc after 0.5 to 6 hrs by LC-MS analysis; format: ADME, organism-based; design: dose 0.1 mg/kg, route subcutaneous; settings: in vivo
[9] = Selectivity ratio of IC50 for human VAP1 to IC50 for rat VAP1
[10] = target: T3, Amine oxidase [copper-containing] 3 (Rattus norvegicus, UniProt O08590); experiment: Inhibition of rat VAP1 expressed in CHO cells using [14C]-benzylamine as substrate incubated for 30 mins prior to substrate addition measured after 1 hr by scintillation spectrophotometric analysis; format: cell-based
T3 sequence (O08590 whole entry): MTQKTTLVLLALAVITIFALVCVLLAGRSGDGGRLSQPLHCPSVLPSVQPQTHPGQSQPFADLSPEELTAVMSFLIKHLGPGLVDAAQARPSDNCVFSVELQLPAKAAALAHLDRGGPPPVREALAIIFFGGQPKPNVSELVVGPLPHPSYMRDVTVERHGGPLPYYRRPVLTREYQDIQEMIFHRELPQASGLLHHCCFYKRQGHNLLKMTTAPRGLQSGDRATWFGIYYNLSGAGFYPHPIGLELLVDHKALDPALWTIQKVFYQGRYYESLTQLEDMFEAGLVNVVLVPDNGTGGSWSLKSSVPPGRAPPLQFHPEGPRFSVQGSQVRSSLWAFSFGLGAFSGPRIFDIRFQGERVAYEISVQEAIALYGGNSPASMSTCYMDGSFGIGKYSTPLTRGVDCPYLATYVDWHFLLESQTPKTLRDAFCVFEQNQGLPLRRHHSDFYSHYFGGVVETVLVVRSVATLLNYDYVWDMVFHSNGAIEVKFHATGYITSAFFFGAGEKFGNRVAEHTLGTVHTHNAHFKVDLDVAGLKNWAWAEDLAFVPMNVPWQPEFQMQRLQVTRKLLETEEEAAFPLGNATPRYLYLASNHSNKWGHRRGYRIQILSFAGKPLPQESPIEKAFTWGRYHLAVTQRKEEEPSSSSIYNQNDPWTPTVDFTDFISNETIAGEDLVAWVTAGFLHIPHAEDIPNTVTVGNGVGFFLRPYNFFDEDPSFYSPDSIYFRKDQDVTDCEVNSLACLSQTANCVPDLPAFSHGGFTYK

Row | pIC50 [1] | Structure (SMILES) | further results
1 | 4.66 | N=C(N)Nc1ccc(CCc2csc(N)n2)cc1 | –
2 | 4.38 | CC(=O)Nc1nc(Cc2ccc(NC(=N)N)cc2)cs1 | –
3 | 4.82 | CC(=O)Nc1cccc(CCc2ccc(NC(=N)N)cc2)c1 | –
4 | 5.02 | CC(=O)Nc1ncc(CCc2ccc(NC(=N)N)cc2)s1 | –
5 | 6.14 | CC(=O)Nc1nc(CCc2ccc(NC=N)cc2)cs1 | –
6 | 4.74 | CC(=O)Nc1ccc(CCc2ccc(NC(=N)N)cc2)cc1 | –
7 | 5.46 | CC(=O)Nc1nc(CCc2ccc(NC3=NCCS3)cc2)cs1 | –
8 | < 5.00 | CC(=O)Nc1nc(CCc2ccc(NC(N)=S)cc2)cs1 | –
9 | 5.52 | CC(=O)Nc1nc(CCc2ccc(NC3=NCCN3)cc2)cs1 | –
10 | 4.96 | N=C(N)Nc1ccc(CCc2csc(NC(=O)c3ccccc3)n2)cc1 | –
11 | 6.17 | CCNC(=N)Nc1ccc(CCc2csc(NC(C)=O)n2)cc1 | –
12 | 6.48 | CC(=O)Nc1nc(-c2ccc(CCNC(=N)N)cc2)cs1 | –
13 | 6.28 | CC(C)C(=O)Nc1nc(CCc2ccc(NC(=N)N)cc2)cs1 | –
14 | 5.06 | CC(=O)Nc1nc(CCCc2ccc(NC(=N)N)cc2)cs1 | –
15 | 5.96 | CSC(=N)Nc1ccc(CCc2csc(NC(C)=O)n2)cc1 | –
16 | < 4.00 | CC(=O)Nc1nc(CCc2ccc(N)cc2)cs1 | –
17 | < 4.00 | CC(=O)Nc1nc(CCc2ccc(NC(=N)N(C)C)cc2)cs1 | –
18 | 6.64 | CC(=O)Nc1nc(CCc2ccc(NC(=N)N)cc2)cs1 | pIC50 [2]: < 4.00; Cp (Plasma [3]): Dose-dependent effect; inhibition (Rattus norvegicus [4]): Active; Ratio IC50 (Homo sapiens [5]): > 435; Ratio IC50 (Homo sapiens [6]): > 435; inhibition (Rattus norvegicus [7]): Active; Cp (Plasma [8]): 21.8 ng/mL; Ratio IC50 [9]: 16; pIC50 [10]: 7.85
19 | 5.96 | CC(=O)Nc1nc(CCc2ccc(N=C(N)NC(C)C)cc2)cs1 | –

Row | Structure (SMILES) | pIC50 [1] | further results
20 | CC(=O)Nc1nc(CCc2ccc(CCN)cc2)cs1 | 5.30 | –
